Laboratory results published in article PMC2779714 (Science signaling, 2009).

Assays:
[1] = biological target: TRPM2 (Mus musculus, UniProt Q91YD4); test: whole-cell patch clamp with intracellular ADPR; assay type: cell-based
[2] = biological target: TRPM2 (Rattus norvegicus, UniProt E9PTA2); test: whole-cell patch clamp with intracellular ADPR; assay type: cell-based
Sequence of TRPM2 (Rattus norvegicus, UniProt E9PTA2) (E9PTA2 whole entry): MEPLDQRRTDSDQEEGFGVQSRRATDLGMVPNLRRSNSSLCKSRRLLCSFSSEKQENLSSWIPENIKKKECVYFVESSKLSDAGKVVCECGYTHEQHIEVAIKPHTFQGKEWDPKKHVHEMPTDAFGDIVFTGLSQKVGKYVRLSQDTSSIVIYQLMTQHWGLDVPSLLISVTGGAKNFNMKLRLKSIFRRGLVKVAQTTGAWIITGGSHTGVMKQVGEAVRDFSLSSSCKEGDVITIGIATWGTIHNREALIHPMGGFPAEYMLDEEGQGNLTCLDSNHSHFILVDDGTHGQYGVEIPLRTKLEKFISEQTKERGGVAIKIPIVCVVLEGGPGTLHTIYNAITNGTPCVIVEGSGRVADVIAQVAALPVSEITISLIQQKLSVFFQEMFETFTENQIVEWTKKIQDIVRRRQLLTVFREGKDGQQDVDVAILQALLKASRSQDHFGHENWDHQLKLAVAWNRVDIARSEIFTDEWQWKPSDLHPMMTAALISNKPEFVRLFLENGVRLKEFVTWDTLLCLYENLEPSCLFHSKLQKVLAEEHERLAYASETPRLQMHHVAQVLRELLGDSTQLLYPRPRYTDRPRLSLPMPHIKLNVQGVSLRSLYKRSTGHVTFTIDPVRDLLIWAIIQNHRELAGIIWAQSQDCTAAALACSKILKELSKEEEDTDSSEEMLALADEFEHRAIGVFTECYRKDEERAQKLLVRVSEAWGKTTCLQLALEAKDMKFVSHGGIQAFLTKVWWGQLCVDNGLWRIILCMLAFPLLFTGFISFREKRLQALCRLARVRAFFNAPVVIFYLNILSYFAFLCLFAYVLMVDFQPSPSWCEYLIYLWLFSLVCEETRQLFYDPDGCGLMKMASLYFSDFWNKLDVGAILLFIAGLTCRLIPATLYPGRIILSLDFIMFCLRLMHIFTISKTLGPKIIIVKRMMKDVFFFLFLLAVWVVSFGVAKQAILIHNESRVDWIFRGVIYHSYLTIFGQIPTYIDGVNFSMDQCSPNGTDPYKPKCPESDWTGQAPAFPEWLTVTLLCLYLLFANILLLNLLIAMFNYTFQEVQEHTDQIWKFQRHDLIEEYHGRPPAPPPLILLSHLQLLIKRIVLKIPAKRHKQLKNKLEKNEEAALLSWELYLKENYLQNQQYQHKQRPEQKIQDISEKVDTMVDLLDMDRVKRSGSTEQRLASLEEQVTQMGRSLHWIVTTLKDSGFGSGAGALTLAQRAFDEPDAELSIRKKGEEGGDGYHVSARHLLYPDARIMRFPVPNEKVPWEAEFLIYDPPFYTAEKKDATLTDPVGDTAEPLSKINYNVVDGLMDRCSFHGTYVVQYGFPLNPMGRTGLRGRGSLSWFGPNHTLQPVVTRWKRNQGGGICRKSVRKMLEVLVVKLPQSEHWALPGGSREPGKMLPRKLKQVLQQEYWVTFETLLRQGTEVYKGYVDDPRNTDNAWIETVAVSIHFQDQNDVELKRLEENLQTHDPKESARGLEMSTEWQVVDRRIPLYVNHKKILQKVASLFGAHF

Sequence of TRPM2 (Mus musculus, UniProt Q91YD4) (Q91YD4 whole entry): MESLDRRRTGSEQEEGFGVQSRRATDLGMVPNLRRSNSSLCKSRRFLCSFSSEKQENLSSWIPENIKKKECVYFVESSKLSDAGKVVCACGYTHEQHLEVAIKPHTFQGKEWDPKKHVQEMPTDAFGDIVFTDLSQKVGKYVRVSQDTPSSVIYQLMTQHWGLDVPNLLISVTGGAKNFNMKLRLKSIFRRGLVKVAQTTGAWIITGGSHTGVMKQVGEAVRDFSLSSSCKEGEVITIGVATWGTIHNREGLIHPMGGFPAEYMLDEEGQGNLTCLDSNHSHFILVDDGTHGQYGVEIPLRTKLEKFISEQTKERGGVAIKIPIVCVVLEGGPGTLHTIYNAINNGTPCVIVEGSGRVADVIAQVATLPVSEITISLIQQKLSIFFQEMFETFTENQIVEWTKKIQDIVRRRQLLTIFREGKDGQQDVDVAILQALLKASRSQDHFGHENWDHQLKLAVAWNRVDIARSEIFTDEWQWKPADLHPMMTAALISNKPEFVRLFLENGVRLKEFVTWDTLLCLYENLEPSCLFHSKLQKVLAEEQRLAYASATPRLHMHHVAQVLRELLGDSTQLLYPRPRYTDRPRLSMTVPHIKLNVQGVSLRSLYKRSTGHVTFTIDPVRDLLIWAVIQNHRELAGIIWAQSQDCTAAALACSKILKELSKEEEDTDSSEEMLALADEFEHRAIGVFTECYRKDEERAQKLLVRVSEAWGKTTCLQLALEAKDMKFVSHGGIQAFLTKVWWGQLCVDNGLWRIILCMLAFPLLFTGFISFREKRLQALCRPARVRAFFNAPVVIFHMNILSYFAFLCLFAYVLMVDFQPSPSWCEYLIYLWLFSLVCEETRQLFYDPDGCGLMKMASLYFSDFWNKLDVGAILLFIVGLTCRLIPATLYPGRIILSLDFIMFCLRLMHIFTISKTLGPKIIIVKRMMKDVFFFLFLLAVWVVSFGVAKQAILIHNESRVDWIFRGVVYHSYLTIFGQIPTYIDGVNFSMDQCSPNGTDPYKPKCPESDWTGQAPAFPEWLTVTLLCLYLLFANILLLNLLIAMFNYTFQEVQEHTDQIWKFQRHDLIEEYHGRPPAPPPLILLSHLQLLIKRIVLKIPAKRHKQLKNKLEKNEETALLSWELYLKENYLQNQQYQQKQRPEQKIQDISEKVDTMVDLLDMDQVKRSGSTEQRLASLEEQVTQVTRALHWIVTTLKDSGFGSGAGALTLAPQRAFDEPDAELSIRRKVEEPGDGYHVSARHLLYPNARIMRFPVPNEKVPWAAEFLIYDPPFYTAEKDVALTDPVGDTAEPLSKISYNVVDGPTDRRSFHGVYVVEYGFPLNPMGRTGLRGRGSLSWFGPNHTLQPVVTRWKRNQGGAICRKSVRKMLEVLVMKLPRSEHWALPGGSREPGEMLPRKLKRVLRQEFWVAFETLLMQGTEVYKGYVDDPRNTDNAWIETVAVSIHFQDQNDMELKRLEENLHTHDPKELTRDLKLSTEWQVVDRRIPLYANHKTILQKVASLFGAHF

EC50 [1]: 360 µM | EC50 [2]: 110 µM
Structure (SMILES): Nc1ncnc2c1ncn2[C@@H]1O[C@H](COP(=O)(O)OP(=O)(O)OC[C@H]2OC(O)[C@H](O)[C@@H]2O)[C@@H](O)[C@H]1O (some centres unmarked) [ADPR]
